How the values were obtained:
Assay in all cases: KINOMEscan
Type in all cases: binding
Settings in all cases: read-out: Remaining enzyme activity
HIPK3 = biological target: T1, HIPK3 (Homo sapiens, UniProt Q9H422)
T1 construct: purchased Ambit (DiscoverX) KINOMEscan; Cerep
Procedure, shortened: (§1)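 Measures displacement of tagged kinase from an immobilized active-site probe rather than enzymatic activity. SC81458 was added at 10 μM final from a 40x stock in 100% DMSO. Bound kinase was eluted and counted via qPCR.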

p38-alpha = biological target: T2, p38-alpha (Homo sapiens, UniProt Q16539)
T2 construct: purchased Ambit (DiscoverX) KINOMEscan; Cerep
Procedure, shortened: as §1

EGFR(L861Q) = biological target: T3, EGFR(L861Q) (Homo sapiens, UniProt P00533, L861Q)
T3 construct: purchased Ambit (DiscoverX) KINOMEscan; Cerep
Procedure, shortened: as §1

PRKCE = biological target: T4, PRKCE (Homo sapiens, UniProt Q02156)
T4 construct: purchased Ambit (DiscoverX) KINOMEscan; Cerep
T4 sequence (Q02156 whole entry): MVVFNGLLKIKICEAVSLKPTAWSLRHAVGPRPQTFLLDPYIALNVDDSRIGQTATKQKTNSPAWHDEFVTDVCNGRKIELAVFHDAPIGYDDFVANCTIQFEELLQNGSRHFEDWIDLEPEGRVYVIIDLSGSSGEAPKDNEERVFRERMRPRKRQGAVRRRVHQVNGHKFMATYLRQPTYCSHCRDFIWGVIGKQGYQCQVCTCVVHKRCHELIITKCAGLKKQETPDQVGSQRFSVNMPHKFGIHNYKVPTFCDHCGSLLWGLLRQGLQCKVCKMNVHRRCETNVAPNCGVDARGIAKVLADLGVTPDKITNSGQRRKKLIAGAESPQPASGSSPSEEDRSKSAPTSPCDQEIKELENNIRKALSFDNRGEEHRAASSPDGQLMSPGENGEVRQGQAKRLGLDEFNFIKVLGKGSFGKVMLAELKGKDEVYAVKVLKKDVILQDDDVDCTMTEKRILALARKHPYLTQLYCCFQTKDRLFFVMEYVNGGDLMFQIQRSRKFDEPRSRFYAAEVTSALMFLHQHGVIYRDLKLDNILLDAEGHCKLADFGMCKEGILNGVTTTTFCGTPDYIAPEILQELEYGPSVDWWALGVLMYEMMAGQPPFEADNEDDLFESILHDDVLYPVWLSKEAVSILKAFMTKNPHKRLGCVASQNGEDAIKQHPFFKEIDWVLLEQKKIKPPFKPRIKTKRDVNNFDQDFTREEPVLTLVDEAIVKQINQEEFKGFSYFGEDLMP
Procedure, shortened: as §1

LATS1 = biological target: T5, LATS1 (Homo sapiens, UniProt O95835)
T5 construct: purchased Ambit (DiscoverX) KINOMEscan; Cerep
T5 sequence (O95835 whole entry): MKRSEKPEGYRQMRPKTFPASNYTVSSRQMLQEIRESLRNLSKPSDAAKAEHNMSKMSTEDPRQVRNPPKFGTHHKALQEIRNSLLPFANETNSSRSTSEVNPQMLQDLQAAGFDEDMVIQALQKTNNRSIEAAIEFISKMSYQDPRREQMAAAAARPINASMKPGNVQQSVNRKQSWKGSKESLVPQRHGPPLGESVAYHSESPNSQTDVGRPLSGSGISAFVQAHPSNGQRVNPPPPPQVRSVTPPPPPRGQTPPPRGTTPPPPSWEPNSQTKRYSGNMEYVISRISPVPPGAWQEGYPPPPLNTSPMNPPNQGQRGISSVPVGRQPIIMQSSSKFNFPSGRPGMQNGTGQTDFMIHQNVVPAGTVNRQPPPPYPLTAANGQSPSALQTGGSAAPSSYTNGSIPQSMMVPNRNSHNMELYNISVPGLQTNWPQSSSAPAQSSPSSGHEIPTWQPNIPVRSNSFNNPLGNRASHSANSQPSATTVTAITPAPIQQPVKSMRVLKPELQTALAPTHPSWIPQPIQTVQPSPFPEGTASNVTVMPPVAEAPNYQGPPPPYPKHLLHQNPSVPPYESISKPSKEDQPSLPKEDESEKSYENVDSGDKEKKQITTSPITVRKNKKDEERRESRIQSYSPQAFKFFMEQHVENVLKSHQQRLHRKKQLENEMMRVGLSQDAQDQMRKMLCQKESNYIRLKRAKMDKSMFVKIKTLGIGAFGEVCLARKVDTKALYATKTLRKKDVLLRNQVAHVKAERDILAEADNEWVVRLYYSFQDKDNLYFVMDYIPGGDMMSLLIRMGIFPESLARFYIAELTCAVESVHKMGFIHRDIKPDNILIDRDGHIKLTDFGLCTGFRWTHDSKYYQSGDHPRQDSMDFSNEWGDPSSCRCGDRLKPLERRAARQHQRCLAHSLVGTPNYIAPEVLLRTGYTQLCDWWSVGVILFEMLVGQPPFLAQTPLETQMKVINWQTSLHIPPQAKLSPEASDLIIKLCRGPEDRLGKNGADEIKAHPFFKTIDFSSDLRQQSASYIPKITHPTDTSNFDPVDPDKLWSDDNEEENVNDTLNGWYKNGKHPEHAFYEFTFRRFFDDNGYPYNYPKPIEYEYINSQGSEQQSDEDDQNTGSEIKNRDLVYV
Procedure, shortened: as §1

CSNK1e = biological target: T6, CSNK1e (Homo sapiens, UniProt P49674)
T6 construct: purchased Ambit (DiscoverX) KINOMEscan; Cerep
Procedure, shortened: as §1

EPHA5 = biological target: T7, EPHA5 (Homo sapiens, UniProt P54756)
T7 construct: purchased Ambit (DiscoverX) KINOMEscan; Cerep
T7 sequence (P54756 25-1037): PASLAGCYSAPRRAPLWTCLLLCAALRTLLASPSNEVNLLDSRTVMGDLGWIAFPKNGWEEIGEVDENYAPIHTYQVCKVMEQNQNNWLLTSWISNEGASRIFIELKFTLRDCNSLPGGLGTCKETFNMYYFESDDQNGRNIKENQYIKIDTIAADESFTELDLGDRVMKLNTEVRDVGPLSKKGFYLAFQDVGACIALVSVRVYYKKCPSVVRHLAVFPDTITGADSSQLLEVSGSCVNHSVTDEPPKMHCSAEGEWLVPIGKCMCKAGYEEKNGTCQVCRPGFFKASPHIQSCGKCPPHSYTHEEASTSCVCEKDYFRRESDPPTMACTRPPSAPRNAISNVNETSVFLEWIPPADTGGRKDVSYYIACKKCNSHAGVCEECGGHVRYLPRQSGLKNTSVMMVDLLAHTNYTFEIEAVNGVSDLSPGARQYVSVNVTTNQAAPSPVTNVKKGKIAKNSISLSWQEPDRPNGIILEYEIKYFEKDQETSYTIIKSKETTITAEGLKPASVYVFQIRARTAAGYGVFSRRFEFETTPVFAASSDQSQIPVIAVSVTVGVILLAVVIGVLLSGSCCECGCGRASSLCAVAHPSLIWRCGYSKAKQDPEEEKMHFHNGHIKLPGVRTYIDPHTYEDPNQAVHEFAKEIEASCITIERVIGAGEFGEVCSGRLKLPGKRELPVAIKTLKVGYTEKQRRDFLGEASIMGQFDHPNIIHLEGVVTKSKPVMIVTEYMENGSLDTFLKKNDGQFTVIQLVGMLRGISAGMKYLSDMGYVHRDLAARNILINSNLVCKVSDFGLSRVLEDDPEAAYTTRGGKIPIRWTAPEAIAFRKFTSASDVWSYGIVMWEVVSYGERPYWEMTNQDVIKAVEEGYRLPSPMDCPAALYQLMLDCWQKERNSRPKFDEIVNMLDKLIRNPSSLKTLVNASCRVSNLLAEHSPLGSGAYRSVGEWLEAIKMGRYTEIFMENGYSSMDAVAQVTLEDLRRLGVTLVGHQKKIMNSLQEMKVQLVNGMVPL
Procedure, shortened: as §1

GSK3b = biological target: T8, GSK3b (Homo sapiens, UniProt P49841)
T8 construct: purchased Ambit (DiscoverX) KINOMEscan; Cerep
Procedure, shortened: as §1

YANK2 = biological target: T9, YANK2 (Homo sapiens, UniProt Q9NY57)
T9 construct: purchased Ambit (DiscoverX) KINOMEscan; Cerep
Procedure, shortened: as §1

PKN2 = biological target: T10, PKN2 (Homo sapiens, UniProt Q16513)
T10 construct: purchased Ambit (DiscoverX) KINOMEscan; Cerep
Procedure, shortened: as §1

KIT = biological target: T11, KIT (Homo sapiens, UniProt P10721)
T11 construct: purchased Ambit (DiscoverX) KINOMEscan; Cerep
Procedure, shortened: as §1

MERTK = biological target: T12, MERTK (Homo sapiens, UniProt Q12866)
T12 construct: purchased Ambit (DiscoverX) KINOMEscan; Cerep
Procedure, shortened: as §1

PIK3Cg = biological target: T13, PIK3Cg (Homo sapiens, UniProt P48736)
T13 construct: purchased Ambit (DiscoverX) KINOMEscan; Cerep
Procedure, shortened: as §1

CSNK1g2 = biological target: T14, CSNK1g2 (Homo sapiens, UniProt P78368)
T14 construct: purchased Ambit (DiscoverX) KINOMEscan; Cerep
Procedure, shortened: as §1

STK16 = biological target: T15, STK16 (Homo sapiens, UniProt O75716)
T15 construct: purchased Ambit (DiscoverX) KINOMEscan; Cerep
Procedure, shortened: as §1

YES = biological target: T16, YES (Homo sapiens, UniProt P07947)
T16 construct: purchased Ambit (DiscoverX) KINOMEscan; Cerep
Procedure, shortened: as §1

ERK2 = biological target: T17, ERK2 (Homo sapiens, UniProt P28482)
T17 construct: purchased Ambit (DiscoverX) KINOMEscan; Cerep
Procedure, shortened: as §1

EGFR(S752-I759del) = biological target: T18, EGFR(S752-I759del) (Homo sapiens, UniProt P00533, DEL752-759)
T18 construct: purchased Ambit (DiscoverX) KINOMEscan; Cerep
Procedure, shortened: as §1

DAPK2 = biological target: T19, DAPK2 (Homo sapiens, UniProt Q9UIK4)
T19 construct: purchased Ambit (DiscoverX) KINOMEscan; Cerep
Procedure, shortened: as §1

MELK = biological target: T20, MELK (Homo sapiens, UniProt Q14680)
T20 construct: purchased Ambit (DiscoverX) KINOMEscan; Cerep
Procedure, shortened: as §1

MET = biological target: T21, MET (Homo sapiens, UniProt P08581)
T21 construct: purchased Ambit (DiscoverX) KINOMEscan; Cerep
Procedure, shortened: as §1

AURKB = biological target: T22, AURKB (Homo sapiens, UniProt Q96GD4)
T22 construct: purchased Ambit (DiscoverX) KINOMEscan; Cerep
Procedure, shortened: as §1

MEK2 = biological target: T23, MEK2 (Homo sapiens, UniProt P36507)
T23 construct: purchased Ambit (DiscoverX) KINOMEscan; Cerep
Procedure, shortened: as §1

ACVR2b = biological target: T24, ACVR2b (Homo sapiens, UniProt Q13705)
T24 construct: purchased Ambit (DiscoverX) KINOMEscan; Cerep
T24 sequence (Q13705 19-512): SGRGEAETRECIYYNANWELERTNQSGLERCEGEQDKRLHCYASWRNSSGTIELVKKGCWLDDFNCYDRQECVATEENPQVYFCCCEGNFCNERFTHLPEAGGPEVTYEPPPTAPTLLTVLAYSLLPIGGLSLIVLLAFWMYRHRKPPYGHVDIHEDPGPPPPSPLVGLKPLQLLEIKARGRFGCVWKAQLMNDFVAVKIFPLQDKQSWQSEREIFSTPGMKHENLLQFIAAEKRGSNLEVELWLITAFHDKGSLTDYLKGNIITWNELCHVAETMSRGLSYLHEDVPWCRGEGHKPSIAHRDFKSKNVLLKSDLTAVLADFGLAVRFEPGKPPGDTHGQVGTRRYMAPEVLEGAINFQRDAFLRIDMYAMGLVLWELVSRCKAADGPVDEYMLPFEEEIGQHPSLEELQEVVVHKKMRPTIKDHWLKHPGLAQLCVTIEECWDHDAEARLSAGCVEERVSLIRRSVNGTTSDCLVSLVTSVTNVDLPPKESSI
Procedure, shortened: as §1

PDGFRb = biological target: T25, PDGFRb (Homo sapiens, UniProt P09619)
T25 construct: purchased Ambit (DiscoverX) KINOMEscan; Cerep
T25 sequence (P09619 33-1106): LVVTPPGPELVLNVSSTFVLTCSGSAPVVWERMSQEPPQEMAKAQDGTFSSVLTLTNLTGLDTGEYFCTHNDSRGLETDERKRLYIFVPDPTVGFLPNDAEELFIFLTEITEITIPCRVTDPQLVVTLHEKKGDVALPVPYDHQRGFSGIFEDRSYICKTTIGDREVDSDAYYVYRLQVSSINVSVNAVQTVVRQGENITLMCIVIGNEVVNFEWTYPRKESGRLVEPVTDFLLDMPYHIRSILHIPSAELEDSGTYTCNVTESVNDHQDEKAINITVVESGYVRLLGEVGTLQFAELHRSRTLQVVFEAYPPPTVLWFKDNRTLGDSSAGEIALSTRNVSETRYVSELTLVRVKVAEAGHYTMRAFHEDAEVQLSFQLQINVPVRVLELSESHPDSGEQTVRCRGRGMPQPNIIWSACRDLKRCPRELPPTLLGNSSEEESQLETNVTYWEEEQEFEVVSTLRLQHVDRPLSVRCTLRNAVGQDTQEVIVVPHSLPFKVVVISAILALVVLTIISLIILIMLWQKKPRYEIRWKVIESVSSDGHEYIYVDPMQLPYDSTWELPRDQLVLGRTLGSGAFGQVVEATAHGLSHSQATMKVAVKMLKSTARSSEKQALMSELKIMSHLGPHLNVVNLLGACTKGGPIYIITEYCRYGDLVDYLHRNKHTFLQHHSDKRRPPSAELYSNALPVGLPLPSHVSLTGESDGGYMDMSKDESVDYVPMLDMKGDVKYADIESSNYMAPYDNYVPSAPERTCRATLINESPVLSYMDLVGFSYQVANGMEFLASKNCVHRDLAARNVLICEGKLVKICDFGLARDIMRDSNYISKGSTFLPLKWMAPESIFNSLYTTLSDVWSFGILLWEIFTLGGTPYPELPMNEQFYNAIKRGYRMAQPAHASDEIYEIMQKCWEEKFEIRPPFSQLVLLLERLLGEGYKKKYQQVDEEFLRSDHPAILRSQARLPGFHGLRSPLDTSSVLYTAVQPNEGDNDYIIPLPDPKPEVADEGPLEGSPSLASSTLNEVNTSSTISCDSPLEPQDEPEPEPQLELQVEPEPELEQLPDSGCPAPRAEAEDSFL
Procedure, shortened: as §1

MST1 = biological target: T26, MST1 (Homo sapiens, UniProt Q13043)
T26 construct: purchased Ambit (DiscoverX) KINOMEscan; Cerep
Procedure, shortened: as §1

FGFR3(G697C) = biological target: T27, FGFR3(G697C) (Homo sapiens, UniProt P22607, G697C)
T27 construct: purchased Ambit (DiscoverX) KINOMEscan; Cerep
Procedure, shortened: as §1

EPHA8 = biological target: T28, EPHA8 (Homo sapiens, UniProt P29322)
T28 construct: purchased Ambit (DiscoverX) KINOMEscan; Cerep
Procedure, shortened: as §1

PLK3 = biological target: T29, PLK3 (Homo sapiens, UniProt Q9H4B4)
T29 construct: purchased Ambit (DiscoverX) KINOMEscan; Cerep
T29 sequence (Q9H4B4 whole entry): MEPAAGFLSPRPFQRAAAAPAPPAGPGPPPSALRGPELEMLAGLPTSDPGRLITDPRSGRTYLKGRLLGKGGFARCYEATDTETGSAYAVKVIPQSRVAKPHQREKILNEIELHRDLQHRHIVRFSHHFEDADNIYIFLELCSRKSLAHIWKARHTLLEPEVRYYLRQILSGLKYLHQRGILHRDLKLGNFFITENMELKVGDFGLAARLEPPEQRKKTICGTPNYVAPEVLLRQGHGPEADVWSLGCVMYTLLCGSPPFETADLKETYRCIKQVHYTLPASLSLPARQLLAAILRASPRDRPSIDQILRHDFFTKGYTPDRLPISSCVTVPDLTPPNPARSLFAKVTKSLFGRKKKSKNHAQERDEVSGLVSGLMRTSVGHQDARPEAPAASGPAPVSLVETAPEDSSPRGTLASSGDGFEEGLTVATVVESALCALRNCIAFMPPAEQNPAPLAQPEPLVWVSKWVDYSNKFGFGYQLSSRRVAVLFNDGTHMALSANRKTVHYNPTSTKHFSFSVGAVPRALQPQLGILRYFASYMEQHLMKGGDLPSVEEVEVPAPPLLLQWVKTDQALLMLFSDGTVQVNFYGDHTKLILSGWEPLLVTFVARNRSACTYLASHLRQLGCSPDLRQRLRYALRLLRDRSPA
Procedure, shortened: as §1

AMPK-alpha2 = biological target: T30, AMPK-alpha2 (Homo sapiens, UniProt P54646)
T30 construct: purchased Ambit (DiscoverX) KINOMEscan; Cerep
Procedure, shortened: as §1

FER = biological target: T31, FER (Homo sapiens, UniProt P16591)
T31 construct: purchased Ambit (DiscoverX) KINOMEscan; Cerep
Procedure, shortened: as §1

CSNK1g1 = biological target: T32, CSNK1g1 (Homo sapiens, UniProt Q9HCP0)
T32 construct: purchased Ambit (DiscoverX) KINOMEscan; Cerep
Procedure, shortened: as §1

ROCK2 = biological target: T33, ROCK2 (Homo sapiens, UniProt O75116)
T33 construct: purchased Ambit (DiscoverX) KINOMEscan; Cerep
Procedure, shortened: as §1

PCTK2 = biological target: T34, PCTK2 (Homo sapiens, UniProt Q00537)
T34 construct: purchased Ambit (DiscoverX) KINOMEscan; Cerep
Procedure, shortened: as §1

With `CCCCN1CCN(C(=N)c2cccc(NC(=O)Nc3ccc(S(=O)(=O)NCc4ccc(S(N)(=O)=O)cc4)cc3)c2)CC1` [SC81458, 4-(3-(3-((4-butylpiperazin-1-yl)(imino)methyl)phenyl)ureido)-N-(4-sulfamoylbenzyl) benzenesulfonamide] the remaining binding at 10 µM (HIPK3) was 99%, the remaining binding at 10 µM (p38-alpha) was 88% and the remaining binding at 10 µM (EGFR(L861Q)) was 91%. It also gave a remaining binding at 10 µM (PRKCE) of 100%, a remaining binding at 10 µM (LATS1) of 82% and a remaining binding at 10 µM (CSNK1e) of 100%. The remaining binding at 10 µM (EPHA5) was 100%, the remaining binding at 10 µM (GSK3b) was 100% and the remaining binding at 10 µM (YANK2) was 99%. The remaining binding at 10 µM (PKN2) was 67%, the remaining binding at 10 µM (KIT) was 60% and the remaining binding at 10 µM (MERTK) was 100%. It also gave a remaining binding at 10 µM (PIK3Cg) of 92%, a remaining binding at 10 µM (CSNK1g2) of 100% and a remaining binding at 10 µM (STK16) of 100%. The remaining binding at 10 µM (YES) was 97%, the remaining binding at 10 µM (ERK2) was 80% and the remaining binding at 10 µM (EGFR(S752-I759del)) was 99%. It also gave a remaining binding at 10 µM (DAPK2) of 100%, a remaining binding at 10 µM (MELK) of 100% and a remaining binding at 10 µM (MET) of 78%. It also gave a remaining binding at 10 µM (AURKB) of 78%, a remaining binding at 10 µM (MEK2) of 100% and a remaining binding at 10 µM (ACVR2b) of 93%. For the same molecule, the remaining binding at 10 µM (PDGFRb) was 61%, the remaining binding at 10 µM (MST1) was 100% and the remaining binding at 10 µM (FGFR3(G697C)) was 100%. It also gave a remaining binding at 10 µM (EPHA8) of 83%, a remaining binding at 10 µM (PLK3) of 75% and a remaining binding at 10 µM (AMPK-alpha2) of 96%. For the same molecule, the remaining binding at 10 µM (FER) was 100%, the remaining binding at 10 µM (CSNK1g1) was 100% and the remaining binding at 10 µM (ROCK2) was 76%. It also gave a remaining binding at 10 µM (PCTK2) of 97%.
